The values below come from PubChem BioAssay AID179 (DTP/NCI, 2004).

The structures appear in SMILES notation. “And” between values parts separate entries of the source, which are not always exact repeats. Equal values may be shown once. The source made the active and inactive calls.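 How the source made its calls: active means compounds giving half or more protection of infected cells from virus-caused growth loss, again on retest; inactive means the rest.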

This experiment relates to CEM cells HIV-1 protection, formazan growth assay. The experiment in a line: NCI AIDS Antiviral Assay. The following applies: for IC50: measured here: growth of uninfected CEM cells. In short, it runs like this:
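Human CEM cells, uninfected and HIV-1-infected, received five drug concentrations, and growth was read by soluble formazan assay. Compounds giving at least 50% protection were retested; reproducible 100% protection defined confirmed active.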

For orientation: EC50 means the concentration giving half of the maximal effect. Usually IC50 stands for the point on the concentration scale where inhibition reaches its midpoint. Take `COC(=O)C1=C(C(=O)OC)SC(=C(Br)C(=C2SC(C(=O)OC)=C(C(=O)OC)S2)C(=C2SC(C(=O)OC)=C(C(=O)OC)S2)C(Br)=C2SC(C(=O)OC)=C(C(=O)OC)S2)S1`: the EC50 is > 2.51 µM and the IC50 was > 2.51 µM.
In the case of `COC(=O)C1=C(C(=O)OC)C2(c3ccccc3)OC1(c1ccccc1)c1cc3ccccc3cc12`, the result was inactive.
Consider `CCOC(=O)Cn1nc2oc(=O)c(CCN3CCN(c4ccccc4OC)CC3)c(C)c2c1C`, for which the EC50 was > 200 µM and the IC50 is > 200 µM.
Regarding `CCOC(COc1c2occc2cc2ccc(=O)oc12)OCC`, the EC50 was > 141 µM and the IC50 turned out to be 51.3 µM.
On to `CC1CC(=O)NC2CC1C2(C)C` (stereo unspecified), for which the EC50 was > 1480 µM and the IC50 is > 1480 µM.
For the compound `N#C/C(=C\N1CCNC1=S)c1nc2ccccc2s1`, the EC50 was > 200 µM and the IC50 is > 200 µM.
With `CC(C)C(O)S(=O)(=O)O` (stereo unspecified), the EC50 was > 200 µM and the IC50 was > 200 µM.
In the case of `CC1=CC(=O)c2c(O)cccc2C1=O`, the EC50 is > 2 µM and the IC50 was determined as 0.912 µM.
As to `CCCCSc1nc2c(=O)[nH][nH]c(=O)c2n1Cc1ccccc1`, the EC50 is > 200 µM and the IC50 worked out at 158 µM.
`IC[P+]1(c2ccccc2)CCCC1`: the EC50 is > 575 µM and the IC50 was 55 µM.
Consider `Cn1cc(NC(=O)c2cc(NC(=O)Nc3cc(C(=O)Nc4cc(C(=O)NCCC(=N)N)n(C)c4)n(C)c3)cn2C)cc1C(=O)NCCC(=N)N`, for which the EC50 was 15.1 µM and the half-inhibitory concentration (IC50) was found to be 77.6 µM.
Consider `COc1ccc(S(=O)(=O)N[C@@H](C(=O)O)c2ccccc2)cc1`, for which the result was inactive.
With `Cc1nc(Nc2ccc(Cl)cc2)sc1C(=O)NNc1ccc([N+](=O)[O-])cc1[N+](=O)[O-]`, the EC50 was > 39.8 µM and the IC50 came out at 25.1 µM.
As to `Oc1c(C(Nc2cccc3cccnc23)c2ccccc2)ccc2cccnc12` (stereo unspecified), the EC50 is > 3.8 µM and the IC50 came to 0.933 µM.
`CCCCCCCc1cc(OC(=O)c2c(C)cc(OC)cc2O)cc(O)c1C(=O)O`: the EC50 is > 162 µM and the IC50 amounted to 83.2 µM.
For `CC(NC(=O)C(N)CC(=O)O)C(=O)OC12CC3CC(CC(C3)C1)C2` (stereo unspecified), the EC50 was > 200 µM and the IC50 is > 200 µM.
Turning to `COC(=O)c1nn2ccc3ccccc3c2c1C(=O)OC`, the EC50 was > 200 µM and the IC50 was 93.3 µM.
The like results for `Nc1ccc([C@H]2C(=O)N[C@H]3CCC[C@H]32)cc1` were, in that order, > 417 µM and > 417 µM.
Consider `CNC(=O)Nn1c(SC)nc2ccccc21`, for which the EC50 is > 200 µM and the IC50 is > 200 µM.
Consider `O=C1NC2(CCCCC2)NC12CCCCC2`, for which the EC50 is > 135 µM and the IC50 was > 135 µM.
For the compound `COc1ccc(Cl)cc1NC(=O)Nc1cc(C)ccn1`, the EC50 is > 200 µM and the IC50 is > 200 µM.
As to `CCCCCCCCCCC(O)CCCCCCC(=O)O` (stereo unspecified), the outcome was inactive.
In the case of `N#CCCC1(CCC#N)CCCCCCC(CCC#N)(CCC#N)C(O)C1O` (stereo unspecified), the EC50 was > 200 µM and the IC50 was > 200 µM.
Take `Cc1oc2nc(N(C)C)n3nnnc3c2c1C`: the outcome was inactive.
As to `CCOC(=O)NP(=O)(N1CC1(C)C)N1CC1(C)C` (stereo unspecified), the EC50 is 123 µM and the IC50 is > 200 µM.
Regarding `COc1nc(NC2OC(COC(C)=O)C(OC(C)=O)C(OC(C)=O)C2OC(C)=O)c(N=CC=Nc2c(NC3OC(COC(C)=O)C(OC(C)=O)C(OC(C)=O)C3OC(C)=O)nc(OC)[nH]c2=O)c(=O)[nH]1` (stereo unspecified), the result was inactive.
In the case of `Nc1snc2ncccc12`, the EC50 is > 1200 µM and the IC50 came out at 66.1 µM.
For `CSC1=N/C(=C\c2cccs2)C(=O)N1CN1CCOCC1`, the EC50 was > 200 µM and the IC50 worked out at 38 µM.
As for `O=C1CCC(=O)N2c3ccccc3-c3ccccc3N12`, the EC50 was > 191 µM and the IC50 is > 191 µM.
As to `CCCCC1(C(=O)OCC)SCCCS1`, the EC50 is > 75.9 µM and the IC50 is > 75.9 µM.
Consider `NC1(C(=O)O)CCCC1`, for which the EC50 is > 724 µM and the IC50 was > 724 µM.
Turning to `Cn1cnnc1Sc1c([N+](=O)[O-])nc(-c2ccc([N+](=O)[O-])cc2)n1C`, the EC50 is > 100 µM and the IC50 is 2.95 µM.
With `CCOC(=O)C1(C(=O)OCC)COC(C)(C)OC1`, the EC50 was > 200 µM and the IC50 was > 200 µM.
Take `CC(C)(C)P1(=O)OCC(c2ccccc2)CO1` (stereo unspecified): the EC50 was > 200 µM and the IC50 came to 151 µM.
The like results for `CC(=O)Nc1nnc2c3ccccc3n(C(C)=O)c2n1` were, in that order, > 200 µM and 3.55 µM.
For the compound `CC(=O)OCC1(C)ON=C2CCCCC21` (stereo unspecified), the EC50 was > 1170 µM and the concentration for half-maximal inhibition (IC50) is > 1170 µM.
Turning to `O=C(O)c1nc(Cl)c(Cl)[nH]c1=O`, the EC50 is > 200 µM and the IC50 was 55 µM.
Take `Cc1cc(NC(=S)NNC(=O)Cn2nnc(-c3cccc(Cl)c3Cl)n2)ccc1Br`: the EC50 was > 200 µM and the IC50 came out at 141 µM.
The like results for `O=C(NCCCN(CCCCN(CCCNC(=O)C(F)(F)F)Cc1ccccc1)Cc1ccccc1)C(F)(F)F` were, in that order, > 200 µM and 37.2 µM.
The like results for `O=C(O)CCC(=O)NC(c1ccccc1)c1ccccc1` were, in that order, > 200 µM and > 200 µM.
Take `C[N+](C)=C1C=CC(=C2C=C(c3ccccc3)Oc3ccccc32)C=C1`: the EC50 is > 200 µM and the IC50 was 1.17 µM.
Take `O=C1NC(=O)/C(=C/c2ccc(S(=O)(=O)N/N=C\C(O)C(O)C(O)C(O)CO)cc2)N1` (stereo unspecified): the EC50 is > 200 µM; the IC50 is 126 µM and > 200 µM.
For `COc1cccc(/C=C(\C#N)C(=O)O)c1`, the EC50 was > 1230 µM and the IC50 stood at 158 µM.
The like results for `Cc1ccc2c(c1)C1(SC(C)C(=O)N1c1ccc(I)cc1)C(=O)N2` (stereo unspecified) were, in that order, > 200 µM and 20 µM.
The like results for `COC(=O)c1cc(CC2Cc3cc4c(cc3C2)CCC4)cc2c1CCC2` were, in that order, > 200 µM and > 200 µM.
The like results for `C/C(=N\N=C(/[O-])c1ccccc1)c1cccc(/C(C)=N/N=C(\[O-])c2ccccc2)n1.O.[Ni+2]` were, in that order, > 100 µM and > 100 µM.
In the case of `O=C(c1ccccc1)c1c(C(=O)c2ccccc2)c(-c2ccccc2)c2c(-c3ccccc3)sc(-c3ccccc3)c2c1-c1ccccc1`, the outcome was inactive.
Still for that read-out and setting: as for `O=C(CCc1cc(-c2ccccc2)nc(=S)[nH]1)N(Cc1ccccc1)Cc1ccccc1`, the entry is “inactive”.
For the compound `CCC1(CC)C(=O)[N-]C(=O)[N-]C1=O.[Au+].[Au+].c1ccc([PH+](c2ccccc2)c2ccccc2)cc1.c1ccc([PH+](c2ccccc2)c2ccccc2)cc1`, the EC50 is > 6.61 µM and the IC50 is > 6.61 µM.
Consider `COc1cc(C(=O)O[C@H]2CCC3CCC2N3C)cc(OC)c1OC` (stereo partly specified), for which the EC50 was > 200 µM and the IC50 is > 200 µM.
With `O=C(/C=C/c1ccc(-c2ccccc2)cc1)c1ccccc1`, the EC50 is > 13.2 µM and the half-inhibitory concentration (IC50) was > 13.2 µM.
Regarding `Cc1ccc(Cl)c(NC(=O)C(=O)C(C(=O)c2ccncc2)C2OC(=O)c3ccccc32)c1` (stereo unspecified), the EC50 was > 562 µM and the IC50 was 166 µM.
The like results for `COc1ccc(/C=C/c2cc(OC)c(OC)c(OC)c2)cc1O[Si](C)(C)C(C)(C)C` were, in that order, > 8.71 µM and 0.479 µM.
In the case of `O=C(O)c1c(O)ccc(N=Nc2ccc(/C=C/c3ccc(N=Nc4ccc(O)c(C(=O)O)c4O)cc3S(=O)(=O)O)c(S(=O)(=O)O)c2)c1O`, the EC50 was > 14.5 µM and the IC50 is > 14.5 µM.
Turning to `Nc1nc(N)c(-c2ccccc2)c(C(=O)Nc2ccccc2)n1`, the EC50 is > 407 µM and the IC50 was > 407 µM.
On to `O=c1oc2ccccc2c(O)c1C(C/C(CCN1CCCC1)=N\Nc1ccccc1)c1ccccc1` (stereo unspecified), for which the EC50 was > 97.7 µM and the IC50 was found to be 41.7 µM.
As to `S=C(/N=c1/sc(Nc2ccccc2)nc2sc3c(c12)CCCC3)Nc1ccccc1`, the EC50 is > 126 µM and the IC50 was > 126 µM.
With `Nc1c(F)c(F)c2c(c1F)N(CCCCCl)c1ccccc1S2`, the EC50 is > 200 µM and the IC50 stood at 21.9 µM.
The like results for `COc1cccc(C=C(C#N)C#N)c1OC` were, in that order, > 200 µM and > 100 µM.
The like results for `CC(NC(=O)/C(=C/c1ccccc1)NC(=O)c1ccccc1)C(=O)O` (stereo unspecified) were, in that order, > 200 µM and > 200 µM.
Take `COC(=O)c1csc(-c2csc(CCNC(=O)OC(C)(C)C)n2)n1`: the EC50 was > 355 µM and the IC50 is 60.3 µM.
As for `CC(=O)Oc1ccc(S(=O)(=O)c2ccc(OC(C)=O)cc2)cc1`, the EC50 is > 200 µM and the IC50 is 9.12 µM.
`COc1ccc(C2Oc3cc(OC)ccc3C(=O)C2c2ccccc2)cc1` (stereo unspecified): the EC50 was > 200 µM and the IC50 amounted to 31.6 µM.
The like results for `O=C1OC2C(O)OC3COC(=O)c4cc(O)c(O)c(O)c4-c4c(O)c(O)c5oc(=O)c6c(c(O)c(O)c7oc(=O)c4c5c76)-c4c(cc(O)c(O)c4O)C(=O)OC3C2OC(=O)c2cc(O)c(O)c(O)c2-c2c1cc(O)c(O)c2O` (stereo unspecified) were, in that order, 0.724 µM and 21.4 µM.
Take `O=[N+]([O-])C1C2C=CC(C2)[C@H]1c1ccco1` (stereo partly specified): the result was inactive.
For the compound `Cc1sc2nc3n(c(=O)c2c1C)N=C(c1ccccc1)CS3`, the EC50 was > 200 µM and the IC50 was > 200 µM.
As for `COc1cc2ccc1OCc1cccc(n1)COc1ccc(cc1OC)C=NCCNCCN=C2`, the EC50 is 132 µM and the IC50 was > 200 µM.
For `Cc1ccsc1/C=N/Nc1nc2ccccc2s1`, the EC50 is > 200 µM and the IC50 turned out to be 105 µM.
The like results for `CCOc1cc2c[n+](C)c3c4cc(OC)c(OC)cc4ccc3c2cc1OC` were, in that order, > 33.1 µM and > 33.1 µM.
On to `Clc1ncccc1SSc1cccnc1Cl`, for which the EC50 was > 200 µM and the IC50 amounted to 89.1 µM.
The like results for `O=CCCn1[nH]c(=O)ccc1=O` were, in that order, > 1480 µM and 1410 µM.
Regarding `C=CC[C@]1(C(C)C(OC(C)=O)c2ccc3c(c2)OCO3)C[C@@H](OC)C=CC1=O` (stereo partly specified), the EC50 was > 20 µM and the IC50 was found to be 1.48 µM.
